Experimental data: patent publication US9290710B2, “Synergistic antimicrobial composition” (Dow Global Technologies LLC, priority 2009, dated 2016)

What was measured:
[1] = system: oil field isolated SRB consortium; assay: Biocidal efficacy (MBC, complete kill) of THPS, NaOPP and THPS/NaOPP against SRB; assay type: cell-based, Sulfate Reducing Bacteria (SRB); settings: alone or in THPS/NaOPP blend, 40° C., 24 hours, 10^6 to 10^7 CFU/mL
Protocol: Inside an anaerobic chamber (Bactron anaerobic chamber), a deaerated sterile salt solution (3.1183 g of NaCl, 1.3082 mg of NaHCO3, 47.70 mg of KCl, 72.00 mg of CaCl2, 54.49 mg of MgSO4, 172.28 mg of Na2SO4, 43.92 mg of Na2CO3 in 1 L water) was contaminated with an oil field isolated SRB consortium, at final bacterial concentrations of 10^6 to 10^7 CFU/mL. The aliquots of this contaminated water were then treated with THPS, NaOPP, or the THPS/NaOPP combinations at different active concentration levels. After the mixtures were incubated at 40° C. for 24 hours, the viable bacteria in the aliquots were detected in culture medium. The biocidal efficacy was determined by minimum tested biocide concentration for a complete bacterial kill in the aliquots (MBC). Table 4 summarizes the efficacy of each biocide and their blends, and the Synergy Index of each combination.

[2] = system: Psedomonas aeruginosa ATCC 10145 and Staphylococcus aureus ATCC 6538; assay: Biocidal efficacy of THPS, NaOPP and THPS/NaOPP against aerobic bacteria (99.999% reduction); assay type: cell-based; settings: alone or in THPS/NaOPP blend, PBS buffer (pH7), 37° C., 24 hour
Protocol: A PBS buffer (pH7) was contaminated with Psedomonas aeruginosa ATCC 10145 and Staphylococcus aureus ATCC 6538 at final bacterial concentration of −10^6 CFU/ml. […] After the mixtures were incubated at 37° C. for 24 hour, the viable bacteria were enumerated using serial dilution method. The biocidal efficacy was determined by minimum tested biocide concentration for 99.999% bacterial reduction in the aliquots.

[3] = system: oil field isolated anaerobic consortium, mainly SRB; assay: Biocidal efficacy of THPS, NaOPP and THPS/NaOPP against anaerobic bacteria (99.999% reduction); assay type: cell-based, Sulfate Reducing Bacteria (SRB); settings: alone or in THPS/NaOPP blend, 40° C., 24 hour, 10^7 CFU/mL
Protocol: Inside an anaerobic chamber (Bactron anaerobic chamber), a deaerated sterile salt solution (3.1183 g of NaCl, 1.3082 mg of NaHCO3, 47.70 mg of KCl, 72.00 mg of CaCl2, 54.49 mg of MgSO4, 172.28 mg of Na2SO4, 43.92 mg of Na2CO3 in 1 L water) was contaminated with an oil field isolated anaerobic consortium, mainly SRB, at final bacterial concentrations of 10^7 CFU/mL. […] After the mixtures were incubated at 40° C. for 24 hour, the viable bacteria were enumerated using serial dilution method. The biocidal efficacy was determined by minimum tested biocide concentration for 99.999% bacterial reduction in the aliquots.

[4] = system: oil field isolated anaerobic SRB consortium; assay: Biocidal efficacy of THPS, DXN and THPS/DXN against SRB (99.99% reduction in 24 hours); assay type: cell-based, Sulfate Reducing Bacteria (SRB); settings: alone or in THPS/DXN blend, 40° C., 10^6 to 10^7 CFU/mL
Protocol: Inside an anaerobic chamber (Bactron III), a deaerated sterile salt solution (3.1183 g of NaCl, 1.3082 mg of NaHCO3, 47.70 mg of KCl, 72.00 mg of CaCl2, 54.49 mg of MgSO4, 172.28 mg of Na2SO4, 43.92 mg of Na2CO3 in 1 L water) was contaminated with an oil field isolated anaerobic SRB consortium at final bacterial concentrations of 10^6 to 10^7 CFU/mL. The aliquots of this contaminated water were then treated with THPS, DXN, or the THPS/DXN combinations at different active concentration levels. After the mixtures were incubated at 40° C. for 24 hour, the viable bacterial number were enumerated using a serial dilution method and the biocidal efficacy was determined by the biocide dosage required for 99.99% bacterial reduction in 24 hours. Synergy Index was then calculated. Table 3 summarizes the efficacy of each biocide and their blends, and the Synergy Index of each combination.
(§1) A Synergy Index less than 1 indicates synergy.

[5] = system: oil field isolated anaerobic consortium, mainly SRB; assay: Biocidal efficacy (MBC, complete kill) of THPS, HHT and THPS/HHT against SRB, 40° C., 24 hour; assay type: cell-based, Sulfate Reducing Bacteria (SRB); settings: alone or in THPS/HHT blend, 10^6 to 10^7 CFU/mL
Protocol: Inside an anaerobic chamber (Bactron anaerobic chamber), a deaerated sterile salt solution (3.1183 g of NaCl, 1.3082 mg of NaHCO3, 47.70 mg of KCl, 72.00 mg of CaCl2, 54.49 mg of MgSO4, 172.28 mg of Na2SO4, 43.92 mg of Na2CO3 in 1 L water) was contaminated with an oil field isolated anaerobic consortium, mainly SRB, at final bacterial concentrations of 10^6 to 10^7 CFU/mL. The aliquots of this contaminated water were then treated with THPS and hexahydro-1,3,5-tris(2-hydroxyethyl)-s-triazine (HHT), or the THPS/HHT combination at different active concentration levels. […] Table 1 summarizes the efficacy of each biocide and their blend, and the Synergy Index*^1 of each combination. *^1Synergy Index=Ca/CA+Cb/CB
• Ca: Concentration of biocide A required to achieve a complete bacterial kill when used in combination with Biocide B • CA: Concentration of biocide A required to achieve a complete bacterial kill when used alone • Cb: Concentration of biocide B required to achieve a complete bacterial kill when used in combination with Biocide A • CB: Concentration of biocide B required to achieve a complete bacterial kill when used alone A Synergy Index less than 1 indicates synergy.

[6] = system: oilfield SRB consortium; assay: Biocidal efficacy of THPS/HHT against anaerobic bacteria in a high temperature and sulfide-rich environment; assay type: cell-based, Sulfate Reducing Bacteria (SRB); settings: alone or in THPS/HHT blend, 80° C., 7 days, daily challenge of SRB and 10 ppm sulfide
Protocol: Inside an anaerobic chamber (BACTRON IV), biocides solutions were challenged with 10^4 to 10^5 CFU/mL of an oilfield SRB consortium and 10 ppm sulfide ion (added in the form of sodium sulfide). The biocide solutions were then incubated at 80° C. under anaerobic condition for 7 days, with daily challenge of the SRB consortium (10^4 to 10^5 CFU/mL) and sulfide ion (10 ppm). The biocidal efficacy was determined by selecting the lowest testing biocide dosage required for 99.999% or complete bacterial kill after both 2 hours and 7 days of heat, SRB and sulfide exposure. Synergy Index was then calculated. Table 2 summarizes the efficacy of each biocide and their blend, and the Synergy Index of each combination.
as §1

[Na+].[O-]c1ccccc1-c1ccccc1 [NaOPP, sodium o-phenylphenylate]
Average MBC NaOPP ([1]; NaOPP concentration for complete bacterial kill): 333.3 active ppm | Concentration required for 99.999% bacterial reduction, NaOPP ([2]; NaOPP): 202.5 ppm active | Concentration required for 99.999% bacterial reduction, NaOPP ([3]; NaOPP): 303.8 ppm active

tetrakis(hydroxymethyl)phosphonium sulfate [THPS]
Average MBC THPS ([1]; THPS concentration for complete bacterial kill): 7.9 active ppm | Dosage required for 99.99% bacterial reduction, THPS ([4]; THPS): 5.5 active ppm | Average MBC THPS ([5]; THPS concentration for complete bacteria kill): 6.1 active ppm | Dosage required for 99.999% or complete bacterial kill of both 2 h and 7 day heat, SRB, and sulfide exposure, THPS ([6]; THPS): 88.9 active ppm | Concentration required for 99.999% bacterial reduction, THPS ([2]; THPS): 26.7 ppm active | Concentration required for 99.999% bacterial reduction, THPS ([3]; THPS): 11.9 ppm active

OCCN1CN(CCO)CN(CCO)C1 [HHT, hexahydro-1,3,5-tris(2-hydroxyethyl)-s-triazine]
Average MBC HHT ([5]; HHT concentration for complete bacteria kill): 79.0 active ppm | Dosage required for 99.999% or complete bacterial kill of both 2 h and 7 day heat, SRB, and sulfide exposure, HHT ([6]; HHT): 133.3 active ppm

CC(=O)OC1CC(C)OC(C)O1 (stereo not drawn) [DXN, 2,6-dimethyl-1,3-dioxan-4-yl acetate]
Dosage required for 99.99% bacterial reduction, DXN ([4]; DXN): 330.9 active ppm
